Reference: patent publication US10369145B2, “Coumarin derivatives and methods of use in treating hyperproliferative diseases” (DISCOVERYBIOMED, INC., priority 2013, dated 2019)
pIC50: −log10 of the molar value.

What was measured:
Format in all cases: cell-based
[1] = tested on: RPMI-8226; assay: NCI 60 panel: RPMI-8226 (Leukemia)
Excerpt: (§5) TGI means the drug concentration resulting in total growth inhibition or “cytostasis.” LC50 is the concentration of drug resulting in a 50% reduction in the measured cytosolic ATP at the end of the drug treatment as compared to that at the beginning, indicating a net loss of cells following treatment (cytotoxicity).

[2] = tested on: HOP-62; assay: NCI 60 panel: HOP-62 (Non-Small Cell Lung Cancer)
Excerpt: as §5

[3] = tested on: HOP-92; assay: NCI 60 panel: HOP-92 (Non-Small Cell Lung Cancer)
Excerpt: as §5

[4] = tested on: NCI-H322M; assay: NCI 60 panel: NCI-H322M (Non-Small Cell Lung Cancer)
Excerpt: as §5

[5] = tested on: COLO 205; assay: NCI 60 panel: COLO 205 (Colon Cancer)
Excerpt: as §5

[6] = tested on: HCC-2998; assay: NCI 60 panel: HCC-2998 (Colon Cancer)
Excerpt: as §5

[7] = tested on: HCT-15; assay: NCI 60 panel: HCT-15 (Colon Cancer)
Excerpt: as §5

[8] = tested on: SW-620; assay: NCI 60 panel: SW-620 (Colon Cancer)
Excerpt: as §5

[9] = tested on: SF-268; assay: NCI 60 panel: SF-268 (CNS Cancer)
Excerpt: as §5

[10] = tested on: LOX IMVI; assay: NCI 60 panel: LOX IMVI (Melanoma)
Excerpt: as §5

[11] = tested on: SK-MEL-5; assay: NCI 60 panel: SK-MEL-5 (Melanoma)
Excerpt: as §5

[12] = tested on: UACC-62; assay: NCI 60 panel: UACC-62 (Melanoma)
Excerpt: as §5

[13] = tested on: IGROV1; assay: NCI 60 panel: IGROV1 (Ovarian Cancer)
Excerpt: as §5

[14] = tested on: 786-0; assay: NCI 60 panel: 786-0 (Renal Cancer)
Excerpt: as §5

[15] = tested on: RXF 393; assay: NCI 60 panel: RXF 393 (Renal Cancer)
Excerpt: as §5

[16] = tested on: SN12C; assay: NCI 60 panel: SN12C (Renal Cancer)
Excerpt: as §5

[17] = tested on: MCF7; assay: NCI 60 panel: MCF7 (Breast Cancer)
Excerpt: as §5

[18] = tested on: T98G; assay: Complementary DBM in vitro profiling: T98G (CNS Cancer)
Protocol: (§1) The compounds described herein are effective for inhibiting cellular proliferation in hyperproliferative cell types. To study the effects of these compounds, an assay was developed to differentiate the effects of the compounds on proliferating versus confluent cells. The assay design generates a proliferating density 24 hours after seeding and provides a 3-day active cell growth/doubling window in which to gauge the anti-proliferative effect of the compounds described herein. […] In this 3-day growth window, cell number increases with daily doublings across the 72-hour period (see FIG. 1).
(§2) In each assay design, compounds were added at the 24-hour timepoint after cell seeding. The effect of the compounds, relative to vehicle control and to VelCade (a proteasome inhibitor approved in the U.S. for treating relapsed multiple myeloma and mantle cell lymphoma) as a positive control, was assessed across the 3-day growth window for proliferating cells and on an already near confluent culture of cells for the same time period. Normal cells were handled in the same manner, with some adjustment of seeding density needed in select cases. […]
(§3) Cell number at the end of the assay was determined using the CELLTITER-GLO Luminescent Cell Viability Assay (Promega; Madison, Wis.). The CELLTITER-GLO Luminescent Cell Viability Assay is a homogeneous method of determining the number of viable cells in culture based on quantitation of the ATP present, an indicator of metabolically active cells. IC50 values were calculated. […]
(§4) For a typical screening experiment to identify the compounds, cells were seeded into 96- or 384-well microtiter plates at plating densities pre-determined for each cell line to ensure drug exposure occurs during the proliferative phase well before confluency is reached. […] Values were calculated for each of these three parameters if the level of activity was reached; however, if the effect was not reached or was exceeded, the value for that parameter was expressed as greater or less than the maximum or minimum concentration tested.

[19] = tested on: SK-OV-3; assay: Complementary DBM in vitro profiling: SK-OV-3 (Ovarian Cancer)
Protocol: as §1, §2, §3, §4

[20] = tested on: CAKI-1; assay: Complementary DBM in vitro profiling: CAKI-1 (Renal Cancer)
Protocol: as §1, §2, §3, §4

[21] = tested on: WT cells (cloned non-cystic kidney tissue cells); assay: Concentration-response in primary cultures cloned from non-cystic kidney tissue; conditions: 72 hour treatment
Protocol: The concentration-response effects of Compound DBM 228, Compound DBM 308, Compound DBM 101, and Compound DBM 328 were determined in primary cultures derived as ‘clones’ from cystic versus non-cystic kidney tissue. CRC graphs, IC50 values, and the percent maximum inhibition versus lowest doses without effect were calculated with GraphPad Prism software. […] There was also a marked separation in effect between hyperproliferative PKD cells (FIG. 5A and Table 3) and WT cells (FIG. 5B and Table 4).

[22] = read-out: LC50 (the source's name)

In the case of `COc1ccccc1Nc1nc(-c2cc3cccc(N)c3oc2=O)cs1` [Compound DBM 228], the GI50 [1] was 238 nM, the TGI [1] was 43.9 µM and the CC50 [1, 22] was greater than 100 µM. It also gave a GI50 [2] of 537 nM, a TGI [2] of 44.8 µM and a CC50 [2, 22] greater than 100 µM. The GI50 [3] was 1450 nM, the TGI [3] was 24.7 µM and the CC50 [3, 22] was greater than 100 µM. The GI50 [4] was 672 nM, the TGI [4] was 25.9 µM and the CC50 [4, 22] was 93.3 µM. It also gave a GI50 [5] of 337 nM, a TGI [5] of 1.8 µM and a CC50 [5, 22] greater than 100 µM. For the same molecule, the GI50 [6] was 1050 nM, the TGI [6] was 16.5 µM and the CC50 [6, 22] was greater than 100 µM. It also gave a GI50 [7] of 128 nM, a TGI [7] of 17.3 µM and a CC50 [7, 22] greater than 100 µM. It also gave a GI50 [8] of 64 nM, a TGI [8] greater than 100 µM and a CC50 [8, 22] greater than 100 µM. For the same molecule, the GI50 [9] was 770 nM, the TGI [9] was 55.3 µM and the CC50 [9, 22] was greater than 100 µM. The GI50 [10] was 900 nM, the TGI [10] was 50.8 µM and the CC50 [10, 22] was greater than 100 µM. It also gave a GI50 [11] of 76.8 nM, a TGI [11] of 2.3 µM and a CC50 [11, 22] of 26.8 µM. It also gave a GI50 [12] of 51.1 nM, an LC50 (lethal concentration, 50% net cell kill) [12] greater than 100 µM and a TGI [12] of 28.2 µM. The GI50 [13] was 1230 nM, the TGI [13] was 23.4 µM and the CC50 [13, 22] was greater than 100 µM. For the same molecule, the GI50 [14] was 709 nM, the TGI [14] was 15.9 µM and the CC50 [14, 22] was 89.4 µM. The GI50 [15] was 218 nM, the TGI [15] was 15.2 µM and the CC50 [15, 22] was 52.6 µM. It also gave a GI50 [16] of 526 nM, a TGI [16] greater than 100 µM and a CC50 [16, 22] greater than 100 µM. For the same molecule, the GI50 [17] was 54.5 nM, the TGI [17] was greater than 100 µM and the CC50 [17, 22] was greater than 100 µM. It also gave a GI50 [18] of 467 nM, a TGI [18] of 3.97 µM and a CC50 [18, 22] of 17.6 µM. For the same molecule, the GI50 [19] was 845 nM, the TGI [19] was greater than 30 µM and the CC50 [19, 22] was greater than 30 µM. It also gave a GI50 [20] of 142 nM, a TGI [20] of 1.92 µM and a CC50 [20, 22] of 5.21 µM. The pIC50 [21] was less than 4.00 and the Max inhibition [21] was 49%.
